This note sets out measurements from the supplement of paper PMC11061612.

Holding throughout (test): Bliss excess, mean over the matrix (fraction); higher = more synergy
For experiment [1], the system named is CAPAN-2 (Pancreatic Carcinoma). In a few lines: (§1)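 Cell lines grown in DMEM/F12 or RPMI with 10% FBS were plated in 1536-well plates and held 24 hours at 37°C, 5% CO2 before 72 hours of exposure to two-drug dose matrices, with DMSO typically at 0.2%. CellTiter-Glo 2.0 luminescence gave viability, which was converted to inhibition. Vehicle wells were set to 0 and blank wells to 1. Combination Emax is the second-highest inhibition in the matrix, and Bliss excess is the observed combination effect minus the expected EA + EB − EA·EB, where EA and EB are the single-agent effects.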

The subject of experiment [2] is COLO-824 (Breast Carcinoma). In a few lines: as §1
For another experiment, the system named is GI-ME-N (Neuroblastoma). The procedure, abridged: as §1
Experiment [3] relates to MDST8 (Colorectal Carcinoma). The procedure, abridged: as §1
For experiment [4], the system named is NCI-H1581 (Non-Small Cell Lung Carcinoma). The procedure, abridged: as §1
A further experiment has as its system PA-1 (Ovarian Carcinoma). In a few lines:
as §1

For `CCN(CCO)CCCOc1ccc2c(Nc3cc(CC(=O)Nc4cccc(F)c4)[nH]n3)ncnc2c1` [AZD2811] + C=CCn1c(=O)c2cnc(Nc3ccc(N4CCN(C)CC4)cc3)nc2n1-c1cccc(C(C)(C)O)n1 [AZD1775] (first compound max 1 µM, partner max 1 µM), the Bliss excess in experiment [1] is -0.0462; in experiment [2], -0.0967; in the experiment with GI-ME-N (Neuroblastoma) it was -0.0112; in experiment [3], 0.064; in experiment [4] it was 0.154; in the experiment on PA-1 (Ovarian Carcinoma), 0.0565.

For `CCN(CCO)CCCOc1ccc2c(Nc3cc(CC(=O)Nc4cccc(F)c4)[nH]n3)ncnc2c1` [AZD2811] + C[C@@H]1COCCN1C2=NC(=NC(=C2)C3(CC3)[S@](=N)(=O)C)C4=C5C=CNC5=NC=C4 [AZD6738] (first compound max 1 µM, 7x7, partner max 10 µM), the Bliss excess is -0.0412 in experiment [1]; -0.0843 in experiment [2]; -0.0437 with GI-ME-N (Neuroblastoma); -0.0174 in experiment [3]; -0.0438 in experiment [4]; -0.0116 in the experiment with PA-1 (Ovarian Carcinoma).

For `CCN(CCO)CCCOc1ccc2c(Nc3cc(CC(=O)Nc4cccc(F)c4)[nH]n3)ncnc2c1` [AZD2811] + O=C(c1cc(Cc2n[nH]c(=O)c3ccccc23)ccc1F)N1CCN(C(=O)C2CC2)CC1 [Olaparib] (first compound max 1 µM, 7x7, partner max 10 µM), the Bliss excess in experiment [1] was -0.0222; in experiment [2], -0.0071; with GI-ME-N (Neuroblastoma) it was -0.0233; in experiment [3], 0.0271; in experiment [4] it was -0.0058; in the experiment with PA-1 (Ovarian Carcinoma), 0.0873.

On to `CN(CCO)CC[C@H](CSc1ccccc1)Nc1ccc(S(=O)(=O)NC(=O)c2ccc(N3CCC([C@@H](O)c4ccccc4-c4ccc(Cl)cc4)CC3)cc2)cc1S(=O)(=O)C(F)(F)F` [AZD4320] + C1CN(CCC1(C(=O)N[C@@H](CCO)C2=CC=C(C=C2)Cl)N)C3=NC=NC4=C3C=CN4 [Capivasertib] (first compound max 1 µM, 7x7, partner max 3 µM), for which the Bliss excess was -0.0534 in experiment [1]; -0.0103 in experiment [2]; -0.0729 in the experiment with GI-ME-N (Neuroblastoma); -0.0482 in experiment [3]; -0.0143 in experiment [4]; 0.0592 in the experiment on PA-1 (Ovarian Carcinoma).

For the compound `CN(CCO)CC[C@H](CSc1ccccc1)Nc1ccc(S(=O)(=O)NC(=O)c2ccc(N3CCC([C@@H](O)c4ccccc4-c4ccc(Cl)cc4)CC3)cc2)cc1S(=O)(=O)C(F)(F)F` [AZD4320] + C=CCn1c(=O)c2cnc(Nc3ccc(N4CCN(C)CC4)cc3)nc2n1-c1cccc(C(C)(C)O)n1 [AZD1775] (first compound max 1 µM, partner max 1 µM), the Bliss excess in experiment [1] was 0.0665; in experiment [2], 0.0803; with GI-ME-N (Neuroblastoma) it was -0.0524; in experiment [3] it was 0.0362; in experiment [4] it was 0.059; in the experiment on PA-1 (Ovarian Carcinoma), 0.0773.

Turning to `CN(CCO)CC[C@H](CSc1ccccc1)Nc1ccc(S(=O)(=O)NC(=O)c2ccc(N3CCC([C@@H](O)c4ccccc4-c4ccc(Cl)cc4)CC3)cc2)cc1S(=O)(=O)C(F)(F)F` [AZD4320] + CCN(CCO)CCCOc1ccc2c(Nc3cc(CC(=O)Nc4cccc(F)c4)[nH]n3)ncnc2c1 [AZD2811] (first compound max 1 µM, 7x7, partner max 1 µM), the Bliss excess was 0.0013 in experiment [1]; 0.0272 in experiment [2]; -0.057 with GI-ME-N (Neuroblastoma); 0.0868 in experiment [3]; 0.0584 in experiment [4]; 0.0664 in the experiment on PA-1 (Ovarian Carcinoma).

For the compound `CN(CCO)CC[C@H](CSc1ccccc1)Nc1ccc(S(=O)(=O)NC(=O)c2ccc(N3CCC([C@@H](O)c4ccccc4-c4ccc(Cl)cc4)CC3)cc2)cc1S(=O)(=O)C(F)(F)F` [AZD4320] + CN(C)CCCOc1ccc(-c2ccc3ncc4c(c3c2)n(C2CCOCC2)c(=O)n4C)cn1 [AZD0156] (first compound max 1 µM, 7x7, partner max 1 µM), the Bliss excess was -0.033 in experiment [1]; 0.0031 in experiment [2]; -0.0454 in the experiment with GI-ME-N (Neuroblastoma); -0.0419 in experiment [3]; 0.0018 in experiment [4]; -0.0528 in the experiment on PA-1 (Ovarian Carcinoma).

Turning to `CN(CCO)CC[C@H](CSc1ccccc1)Nc1ccc(S(=O)(=O)NC(=O)c2ccc(N3CCC([C@@H](O)c4ccccc4-c4ccc(Cl)cc4)CC3)cc2)cc1S(=O)(=O)C(F)(F)F` [AZD4320] + C[C@@H]1COCCN1C2=NC(=NC(=C2)C3(CC3)[S@](=N)(=O)C)C4=C5C=CNC5=NC=C4 [AZD6738] (first compound max 1 µM, 7x7, partner max 10 µM), the Bliss excess in experiment [1] was -0.0461; in experiment [2] it was -0.0365; with GI-ME-N (Neuroblastoma) it was -0.0403; in experiment [3], -0.0578; in experiment [4] it was -0.0837; with PA-1 (Ovarian Carcinoma) it was 0.0242.

Regarding `CN(CCO)CC[C@H](CSc1ccccc1)Nc1ccc(S(=O)(=O)NC(=O)c2ccc(N3CCC([C@@H](O)c4ccccc4-c4ccc(Cl)cc4)CC3)cc2)cc1S(=O)(=O)C(F)(F)F` [AZD4320] + C[C@@H](Nc1cc(F)cc(F)c1)c1cc(C(=O)N(C)C)cc2c(=O)cc(N3CCOCC3)oc12 [AZD8186] (first compound max 1 µM, 7x7, partner max 3 µM), the Bliss excess in experiment [1] is -0.0099; in experiment [2] it was 0.0422; in the experiment with GI-ME-N (Neuroblastoma), 0.0272; in experiment [3] it was 0.025; in experiment [4], 0.0052; in the experiment on PA-1 (Ovarian Carcinoma), 0.0411.
